Results: US5387578A (priority 1990, dated 1995)

Assays:
[1] = system: LoVo-Doxo-resistant (LoVo/DX) cells; assay type: cell-based; conditions: human, lovo/dx vs lovo cells, 240 min
[2] = Release of 13b from conjugates in acetate buffer at 37° C.; assay type: physicochemical; conditions: pH 5, 37° C., ionic strength 0.05M, HPLC
Protocol: In Table 4 are reported t50 % of release of 3'deamino-3'[2(S) -methoxy-4-morpholinyl]doxorubicin (13b) from the conjugates at […] (acetate buffer) at 37° C.
Release of 13b from conjugates at pH 5 and
temperature 37° C. in acetate buffer^(7).
^(6) Time requests for the release of 50% of free drug 13b. Determine
by HPLC using a calibration curve of compound 13b.
^(7) Ionic strenght 0.05M.

Row | Molecule | R.I. = Resistance Index = (IC50 LoVo/DX)/(IC50 LoVo) [1] | t50% (time for the release of 50% of free drug 13b) [2] [h]
1 | COc1cccc2c1C(=O)c1c(O)c3c(c(O)c1C2=O)C[C@@](O)(C(=O)CO)C[C@@H]3O[C@H]1C[C@H](N2CCO[C@H](OC)C2)[C@H](O)[C@H](C)O1 [Compound 13b] | 2 | 
2 | copolymer of 3-methacryloylamino-2-hydroxypropane and 14-O-{1-[4-(6-methacryloylaminocaproyl)piperazinlyl]-carbonylmethyloxy-cyclohexyl}-3'-deamino-3'[2(S)-methoxy-4-morpholinyl]doxorubicin [1^vii] |  | 20
3 | COc1cccc2c1C(=O)c1c(O)c3c(c(O)c1C2=O)C[C@@](O)(C(=O)CO)C[C@@H]3O[C@H]1C[C@H](N)[C@H](O)[C@H](C)O1 [Doxorubicin] | 36.3 | 
4 | conjugate of Poly(Glu-Na, Ala.Tyr) (1:1:1) and 14-O-(1-piperazinocarbonylmethyloxy-cyclohexyl)-3'-deamino[2(S)-methoxy-4- morpholinyl]doxorubicin [1^viii] |  | 3.5
